Reference: US20140363384A1, “COMBINATION THERAPY FOR COPD” (CHIESI FARMACEUTICI S.p.A., priority 2009, published 2014)

Legend:
[1] = Analysis of impurities/degradation products by HPLC/UV VIS; settings: for Total impurities % Vs active ingredient: stored 3 months at 25° C./60% relative humidity
[2] = Stability of single, double and triple combination aerosol solution formulations: residual content of active ingredient in the can; type: physicochemical; settings: for Residual % amount ± standard deviation: stored 3 months at 25° C./60% relative humidity, versus amount at time 0
[3] = triple combination FF+GLY+BDP, versus initial amount of the active ingredient
[4] = triple combination FF+GLY+BDP aerosol solution
[5] = triple combination, +5° C. to +40° C./75% RH, 1, 2 and 3 months

Residual % amount ± standard deviation ([2]; double combination FF + BDP) [%]	Structure (SMILES)	Total impurities % Vs active ingredient ([1]; double combination FF + BDP) [%]	Total impurities % Vs active ingredient [1, 3] [%]	Residual % amount ± standard deviation [2, 4] [%]	can content versus time and temperature of storage [2, 5]	Total impurities % Vs active ingredient ([1]; double combination FF + Gly) [%]	level of degradation products (HPLC/UV) ([1]; formulations comprising both formoterol and GLY)	Residual % amount ± standard deviation ([2]; double combination FF + Gly) [%]	can content versus time and temperature of storage ([2]; double combination FF+GLY, all tested storage conditions)	can content versus time and temperature of storage ([2]; single agent GLY formulation in the presence of 1M HCl)	can content versus time and temperature of storage ([2]; single agent GLY formulation, acid omitted)
98.9 ± 0.6	CCC(=O)OCC(=O)[C@@]1(OC(=O)CC)[C@@H](C)C[C@H]2[C@@H]3CCC4=CC(=O)C=C[C@]4(C)[C@@]3(Cl)[C@@H](O)C[C@@]21C [BDP, beclometasone dipropionate]	0.20	0.21	94.5 ± 0.3	not significantly affected by time and temperature	–	–	–	–	–	–
–	COc1ccc(C[C@@H](C)NC[C@H](O)c2ccc(O)c(NC=O)c2)cc1.COc1ccc(C[C@@H](C)NC[C@H](O)c2ccc(O)c(NC=O)c2)cc1.O=C(O)/C=C/C(=O)O [FF, formoterol fumarate]	0.80	1.1	–	–	1.3	high levels of degradation products	–	–	–	–
–	C[N+]1(C)CCC(OC(=O)C(O)(c2ccccc2)C2CCCC2)C1.[Cl-] (stereo not drawn) [Gly, 3-[(cyclopentylhydroxyphenyl-acetyl)oxy]-1,1-dimethylpyrrolidinium chloride]	–	–	96.4 ± 1.3	not significantly affected by time and temperature	–	–	96.0 ± 0.1	remains stable under all of the tested conditions	maintain a constant content	highly dependent on time and temperature of storage
